Data: paper PMC9227323, “The Potential of Cell-Penetrating Peptides for mRNA Delivery to Cancer Cells” (Pharmaceutics, 2022)
Values joined by “and” are separate entries in the source; they are usually repeats but may differ in a detail not shown here. Identical values can stand only once. Ends that are not written are not given here.

What was measured:
[1] = tested on: mCherry mRNA; assay: Gel shift assay, complexation capacity of CPP with mRNA; format: physicochemical; details: 350 ng mCherry mRNA, n = 3
Description: The mRNA was diluted in RNase-free water at 100 ng/μL and incubated with CPPs (1 μg/μL in RNase-free water) at room temperature (RT) for 1 h at 200 rpm. For in vitro studies, CPP/mRNA complexes were diluted with 1× PBS by adding 10× PBS after complexation. To visualize the complexation of mRNA and CPP, 350 ng of mCherry mRNA was mixed with increasing amounts of CPP and a gel shift assay was performed using a 1% agarose gel. Complexation capacity was measured based on mRNA band intensities by Image J. Complexation capacity (%) = 100 − ((Band intensity of mRNA)/(Band intensity of initial mRNA) × 100))

[2] = Size and zeta-potential of CPP/mRNA complexes by DLS; format: physicochemical; details: for Particle Size / PDI / Zeta Potential: CPP/mRNA complex at the N/P ratio of Table 2; for Particle Size / PDI: DLS; for Particle Size / Zeta Potential: Zetasizer Nano ZS; for Particle Size: 50 μg CPP in 1 mL distilled water; for PDI / Zeta Potential: distilled water; for N/P Ratio (lowest N/P ratio to form the nanocomplexes): CPP/mRNA complex, amine groups of peptide to phosphate groups of mRNA
Description: The size and zeta-potential of CPP/mRNA complexes were measured by dynamic light scattering (DLS) using Zetasizer Nano ZS (Malvern Instruments, Malvern, UK); 50 μg of CPPs mixed with an optimized amount of mRNA were diluted in 1 mL of distilled water and then transferred to a cuvette.

[3] = tested on: CT26.CL25 cells; assay: Cellular uptake of fluorescein-labeled mRNA, flow cytometry; format: cell-based, mouse; details: CT26.CL25, 3 μg (6.8 nM) fluorescein-labeled mCherry mRNA with CPP or Lipofectamine 3000, serum-free media, 3 h, n = 3
Description: For the cellular uptake test, mCherry mRNA was labeled with fluorescein dye using the Label IT nucleic acid labeling kit (MIR 3200) (Mirus Bio, Madison, WI, USA). CT26.CL25 cells plated on a 35 mm glass bottom dish were incubated in 1.5 mL of serum-free media for 2 h. […] After treatment, CT26.CL25 cells were collected with PBS and FITC-positive cells were measured by a CytoFLEX flow cytometer (Beckman Coulter, Palo Alto, CA, USA) using FlowJo v10 software.

[4] = tested on: CT26.CL25 cells; assay: mCherry protein expression, fluorescence microscopy; format: cell-based, mouse; details: CT26.CL25, CPP/mCherry mRNA 6.8 nM, 24 h after treatment, n = 3
Description: (§1) To measure expression efficiency, cells seeded on a 35 mm glass bottom dish were incubated in 1.5 mL of serum-free media for 2 h. After incubation, mCherry mRNA with Lipofectamine 3000 or CPPs were treated for 3 h, washed, and incubated in complete medium for an additional 21 h. The expression of mCherry protein was visualized with a fluorescence microscope (EVOS M7000, ThermoFisher). The expression efficiency was calculated by counting the number of cells expressing fluorescence in the total number of cells. For quantification of expression efficiency, flow cytometry analyses were examined after 24 h treatment with CPP/EGFP mRNA. CT26.CL25 cells were collected with PBS and EGFP-expressing cells were measured by a CytoFLEX flow cytometer (Beckman Coulter) using FlowJo v10 software.

[5] = tested on: CT26.CL25 cells; assay: EGFP expression, flow cytometry; format: cell-based, mouse; details: CT26.CL25, EGFP mRNA 6.8 nM, 24 h, right plot of Figure 6B (amphipathic CPPs)
Description: as §1

Substance	amount of CPP at which complete complexes formed [1] [nmol]	Particle Size [2]	PDI [2]	Zeta Potential [2]	N/P Ratio (lowest N/P ratio to form the nanocomplexes) [2]	FITC-positive cells (cellular uptake) [3]	mCherry-positive cells [4]	EGFP-expressing cells [5] [%]
WEARLARALARALARHLARALARALRACEA [amphipathic cell-penetrating peptide, synthesized by Peptron]	1.0	174.6 (±3.7) nm	0.23	+20.2 (±1.7) mV	9.7	99.9% and > 85%	28.9%	29.5
VSRRRRRRGGRRRR [LMWP, low molecular weight protamine, cationic cell-penetrating peptide, synthesized by Peptron]		129.5 (±0.3) nm	0.22	+22.5 (±0.0) mV	1.9	24.1%		
Penetratin						28.7%	incapable of protein expression	
Stearyl-RRRRRRRR [STR-Arg8, Stearyl-poly-Arginine8, amphipathic CPP, stearyl moiety introduced into Arg8]		156.8 (±4.7) nm	0.28	+28.6 (±0.3) mV	7.8	87.3% and > 85%	4.9%	14.6
